The source of these data is article PMC12291119, “In Vitro Selection of Cyclized, Glycosylated Peptide Antigens That Tightly Bind HIV High Mannose Patch Antibodies” (ACS Central Science, 2025).

One experiment has as its target PGT128. Briefly: Biolayer interferometry (BLI) of immobilized biotinylated glycopeptides binding to PGT128. The note with it: for fold decrease in PGT128 binding relative to parent H1 glycopeptide: BLI KD compared with H1 (peptide 1). The source says:
6 Biolayer interferometry (BLI) measurement of glycopeptides immobilized via biotin on a streptavidin biosensor binding to PGT128. All sensorgrams represent a series of 2-fold dilutions of antibody with highest concentration tested labeled. All sequences followed by GSGSGK(Biotin). M denotes homopropargylglycine, modified by CuAAC as in Figure .
C. Binding Analysis of PGT Antibody-Peptide/Glycopeptide Interactions by Biolayer Interferometry
1. Biolayer Interferometry Protocol
Biotinylated glycopeptide was loaded onto a streptavidin biosensor in 250 µL buffer 1 (500 to 1000 nM […] glycopeptide in 20 mM Tris pH 7.5, 150 mM NaCl, 0.2 mg/ml BSA, 0.02% (v/v) Tween-20) for 120s in a […] of black Eppendorf tube. The sensor was then washed with 250 µL of blank buffer 1 for 120 seconds in a […] black Eppendorf tube. The sensor was washed with 250 µL buffer 3 (10 mM glycine HCl, pH 2.5) for 120 seconds in […] of black Eppendorf tube and followed by 250 µL of blank buffer 1 for 120 seconds in a […] black Eppendorf tube to immobilize glycopeptides in a range of 0.5 nm to 2 nm response. The sensor was then equilibrated with 250 µL of buffer 2 (20 mM Tris pH 7.5, 150 mM NaCl, 2 mg/ml BSA, 0.1% (v/v) Tween-20) for 120 seconds in a […] of black Eppendorf tube PGT antibody (prepared in buffer 2) was associated at several concentrations for 300 seconds in 4 µL drop holder followed by dissociation into blank 250 µL of buffer 2 for 300 seconds in […] of black Eppendorf tube. After each dissociation sensor was regenerated to remove the remaining antibody by treatment with 250 µL of buffer 3 for 120 seconds, followed by 120 seconds of wash with 250 µL buffer 1 and re-equilibration with 250 µL buffer 2 in […] of black Eppendorf tube. Throughout the experiment, the shaker rate was set at 2200 rpm. Data were fit globally to a 1:1 binding model.
2. BLI Sensorgram of H1-QQQ-non-glycosylated Peptide with PGT128
Figure S33. […]

For the next experiment, the system named is HIV pseudovirus panel. Conditions: ref number not given, cited from earlier work. The source says: We have sought to mimic HMP epitopes without using either the entire Env protein, which contains a plethora of “distracting” epitopes that easily elicit off-target antibodies; − or short glycopeptides directly derived from the Env sequence, which may not sufficiently recapitulate the HMP structure without the conformational support of the remaining Env protein. Aiming to design glycostructures that better mimic the glycan presentation in the HMP, we have pioneered various techniques for the directed evolution of DNA, , RNA, F-RNA, or peptide-supported , glycan clusters.

The target in a further experiment is HIV Env. Conditions: read-out: reported affinities of PGT122 for HIV Env; ref number not given; cited from earlier work. The source says:
We performed preliminary binding assays for those sequences and others using translated peptides with or without attached glycans. No sequ ...

Setting [1] is: diverse/representative HIV pseudovirus panel.

Numbered stars: 1 amine (or outer) side, 2 acyl side, 3 side chain; on linkers, the order of the positions; unused ones are H or OH. Bridge positions count the residues as written; N and C are the ends. Square brackets hold non-standard residues; d marks the D form. Ends that are not written are not given here. * marks the point of attachment. X1 = CC(=O)N[C@@H]1[C@@H](O)[C@H](O[C@@H]2O[C@H](CO)[C@@H](O[C@@H]3O[C@H](CO[C@H]4O[C@H](CO[C@H]5O[C@H](CO)[C@@H](O)[C@H](O)[C@@H]5O[C@H]5O[C@H](CO)[C@@H](O)[C@H](O)[C@@H]5O)[C@@H](O)[C@H](O[C@H]5O[C@H](CO)[C@@H](O)[C@H](O)[C@@H]5O[C@H]5O[C@H](CO)[C@@H](O)[C@H](O)[C@@H]5O)[C@@H]4O)[C@@H](O)[C@H](O[C@H]4O[C@H](CO)[C@@H](O)[C@H](O)[C@@H]4O[C@H]4O[C@H](CO)[C@@H](O)[C@H](O)[C@@H]4O[C@H]4O[C@H](CO)[C@@H](O)[C@H](O)[C@@H]4O)[C@@H]3O)[C@H](O)[C@H]2NC(C)=O)[C@@H](CO)O[C@H]1n1cc(CC[C@H](N[*:1])C(=O)[*:2])nn1; Biotin = O=C1N[C@H]2[C@H](CS[C@H]2CCCCC(=O)*)N1; mXylylene = c1cc(C[*:1])cc(C[*:2])c1

As to “ALFKPYPKIGDIRKARC[X1]LQHTLHHRTNKQPSYRRRLKTLIPLFRRC[X1]LGSGSGK(Biotin)-NH2 (linker 17-47 via mXylylene; C-terminus assumed) [compound 2]”, the Kd at PGT128 (BLI, peptide immobilized via biotin on streptavidin biosensor, 2-fold dilutions of PGT128 in 20 mM Tris pH 7.5, 150 mM NaCl, 2 mg/ml BSA, 0.1% Tween-20, 300 s association, 300 s dissociation, global 1:1 fit) was 16.9 nM.

On to “AYTEKHNGIGDIRPAICQNSKNQNHRCNHYQIKLYIH[X1]L[X1]RLPHNYRNSGSGSGK(Biotin)-NH2 (linker 17-27 via mXylylene; C-terminus assumed) [peptide 3]”, for which the “fold decrease in PGT128 binding relative to parent H1 glycopeptide” value in the experiment on PGT128 was roughly 2 fold.

Turning to “AYTEKHNGIGDIRPAIC[X1]NSKNQNHRCNHYQIKLYIHQLQRLPHNYRNSGSGSGK(Biotin)-NH2 (linker 17-27 via mXylylene; C-terminus assumed) [peptide 4]”, the “fold decrease in PGT128 binding relative to parent H1 glycopeptide” value in the experiment on PGT128 is roughly 40 fold.

For “PGT122: HIV bnAb binding the High Mannose Patch”, in the experiment on HIV pseudovirus panel (setting [1]), the “breadth (fraction of HIV pseudovirus panel neutralized)” value is 65% and the “median IC50” value is 0.05 µg/mL. Also, in the experiment with HIV pseudovirus panel (neutralization potency), the “potency (EC50)” value is 0.05 µg/mL. Moreover, the Kd at HIV Env is 100 to 174 nM.
